Experimental findings from patent publication US8461329B2, “Isoquinoline derivative” (Taisho Pharmaceutical Co., Ltd., priority 2008, dated 2013) are described below.

Where a name gives a salt, the structure may show the parent alone.

The target of the first test is T1, CRTH2 (KB8 cells) (Homo sapiens, UniProt Q9Y5Y4).
T1 construct: host or cells: KB8 cells (human CRTH2 expression cell)
T1 sequence (Q9Y5Y4 1-395): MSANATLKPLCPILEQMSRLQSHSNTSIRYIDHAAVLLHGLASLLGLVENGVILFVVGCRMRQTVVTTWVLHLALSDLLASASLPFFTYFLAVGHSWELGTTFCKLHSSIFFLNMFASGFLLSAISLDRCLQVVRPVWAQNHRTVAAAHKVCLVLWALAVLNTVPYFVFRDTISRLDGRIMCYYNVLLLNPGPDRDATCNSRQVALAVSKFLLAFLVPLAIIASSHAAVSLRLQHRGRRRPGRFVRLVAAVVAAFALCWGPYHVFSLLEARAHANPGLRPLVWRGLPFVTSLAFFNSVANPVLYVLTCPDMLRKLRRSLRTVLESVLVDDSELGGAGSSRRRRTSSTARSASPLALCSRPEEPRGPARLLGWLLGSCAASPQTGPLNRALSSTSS
Description: CRTH2 antagonist test (PGD2-induced intracellular calcium ion concentration increase in KB8 cells). In kind it is cell-based. The note with it: PGD2 100 nM, Fluo-4 calcium fluorescence, read-out: CRTH2 antagonist activity IC50 value. The procedure:
The antagonist activity of the compound of the present invention was considered by using the intracellular calcium ion concentration increase reaction induced when the prostaglandin D2 was added to KB8 cells.
Fluo-4-AM (4-(6-acetoxymethoxy-2,7-difluoro-3-oxo-9-xanthenyl)-4′-methyl-2,2′-(ethylenedioxy)dianilide-N,N,N′,N′-tetraacetic acid tetrakis(acetoxymethyl) ester (SIGMA, final concentration: 1 μM) was added to KB8 cells, and the cells were incubated at 37° C. for 30 min, washed with phosphate buffer (Invitrogen), and then suspended in Hank's balanced salt solution (Invitrogen)) containing a reaction buffer solution (10 mM HEPES (Invitrogen), and 1 mM calcium chloride (SIGMA). The suspension was dispensed in a 96 well plate (Nunc) so that 2×10^5 cells/well were placed, and the compound of the present invention and PGD2 (final concentration: 100 nM) were added. The fluorescence intensity thereof was measured over time by using FDSS6000 (Hamamatsu Photonics), and thus the maximum fluorescence intensity value “d” was obtained. The same procedure was carried out in the absence of the compound, and the maximum fluorescence intensity value “e” was obtained; and the same procedure was carried out in the absence of the compound and […], and the maximum fluorescence intensity value “f” was obtained.
The calcium ion concentration increase inhibition rate of a compound was calculated by the following calculation formula: Inhibitory rate(%)=[1−(d−f)/(e−f)]×100
That is to say, by using calcium ion concentration increase inhibitory rates of compounds to be tested having various concentrations, the IC50 value was calculated according to a dose-dependent inhibition curve analyzed by using XLfit (IDBS) as a data analysis software, and the value was defined as an indicator of the antagonist activity. In Tables, A denotes an inhibitory activity showing the IC50 value of less than 50 nM; B denotes an inhibitory activity showing the IC50 value of 50 nM or greater and less than 500 nM; C denotes an inhibitory activity showing the IC50 value of 500 nM or greater and less than 1000 nM; and D denotes an inhibitory activity showing the IC50 value of 1000 nM or greater.
(In general: Calcium flux is commonly read through the fluorescence of an indicator in the cells.)
In the case of `O=C(O)Cc1cnc(C(=O)c2ccc(NC(=O)c3cc4cc(F)ccc4[nH]3)cc2)c2ccccc12` [Example 122], the IC50 amounted to 2.3 nM.

Still in this test, the particulars now being: PGD2 final concentration 100 nM, Fluo-4-AM fluorescence, read-out: antagonist activity (IC50 value, inhibition of calcium ion concentration increase).
Regarding `O=C(O)Cc1cnc(C(=O)c2ccc(NC(=O)c3ccc(O)cc3)cc2)c2ccccc12` [Example 89], the IC50 is less than 50 nM.

For `O=C(O)Cc1cnc(C(=O)c2ccc(NC(=O)C3=CCCCC3)cc2)c2ccccc12` [Example 90], the IC50 was 50 to 500 nM. Same read-out and setting: under `O=C(O)Cc1cnc(C(=O)c2ccc(NC(=O)c3ccc(C(=O)c4ccccc4)cc3)cc2)c2ccccc12` [Example 91] stands less than 50 nM.

Turning to `O=C(O)Cc1cnc(C(=O)c2ccc(NC(=O)c3ccc4ccccc4n3)cc2)c2ccccc12` [Example 93], the IC50 was less than 50 nM.

`O=C(O)Cc1cnc(C(=O)c2ccc(NC(=O)c3cc4c([nH]3)CCCC4)cc2)c2ccccc12` [Example 94]: the IC50 was less than 50 nM. Regarding `O=C(O)Cc1cnc(C(=O)c2ccc(NC(=O)c3c[nH]c4ncccc34)cc2)c2ccccc12` [Example 95], the IC50 fell in the range of 50 to 500 nM. On the same count and under the same terms, then `COc1ccc2[nH]c(C(=O)Nc3ccc(C(=O)c4ncc(CC(=O)O)c5ccccc45)cc3)cc2c1` [Example 96], with less than 50 nM; and `O=C(O)Cc1cnc(C(=O)c2ccc(NC(=O)c3c[nH]cn3)cc2)c2ccccc12` [Example 97], with no less than 1000 nM; and `O=C(O)Cc1cnc(C(=O)c2ccc(NC(=O)c3cccnn3)cc2)c2ccccc12` [Example 98], with no less than 1000 nM.

Take `Cc1ccc(C(=O)Nc2ccc(C(=O)c3ncc(CC(=O)O)c4ccccc34)cc2)cc1Cl` [Example 99]: the IC50 was less than 50 nM. In the case of `COc1cc(C(=O)Nc2ccc(C(=O)c3ncc(CC(=O)O)c4ccccc34)cc2)ccc1C` [Example 100], the IC50 is less than 50 nM. The same measure, in the same setting: under `Cc1ccc(C(=O)Nc2ccc(C(=O)c3ncc(CC(=O)O)c4ccccc34)cc2)cc1C` [Example 101] stands less than 50 nM. On the same count and under the same terms, then `Cc1ccc2sc(C(=O)Nc3ccc(C(=O)c4ncc(CC(=O)O)c5ccccc45)cc3)cc2c1` [Example 102], with less than 50 nM; and `Cc1cc(C)cc(C(=O)Nc2ccc(C(=O)c3ncc(CC(=O)O)c4ccccc34)cc2)c1` [Example 103], with less than 50 nM; and `O=C(O)Cc1cnc(C(=O)c2ccc(NC(=O)c3cccc4cccnc34)cc2)c2ccccc12` [Example 104], with no less than 1000 nM. In the case of `O=C(O)Cc1cnc(C(=O)c2ccc(NC(=O)c3ccc4cccnc4n3)cc2)c2ccccc12` [Example 105], the IC50 was 500 to 1000 nM. Still for that read-out and setting: under `COc1ccc(C(=O)Nc2ccc(C(=O)c3ncc(CC(=O)O)c4ccccc34)cc2)cc1OC` [Example 106] stands 50 to 500 nM. On the same count and under the same terms, under `Cc1cc(C(=O)Nc2ccc(C(=O)c3ncc(CC(=O)O)c4ccccc34)cc2)ccc1Cl` [Example 107] stands less than 50 nM; under `COc1ccc(C(=O)Nc2ccc(C(=O)c3ncc(CC(=O)O)c4ccccc34)cc2)cc1Cl` [Example 108], less than 50 nM; under `NS(=O)(=O)c1ccc(C(=O)Nc2ccc(C(=O)c3ncc(CC(=O)O)c4ccccc34)cc2)cc1` [Example 109], 50 to 500 nM. For `CCCOc1ccc(C(=O)Nc2ccc(C(=O)c3ncc(CC(=O)O)c4ccccc34)cc2)cc1` [Example 110], the IC50 is less than 50 nM.

As to `CC(C)(C)c1ccc(C(=O)Nc2ccc(C(=O)c3ncc(CC(=O)O)c4ccccc34)cc2)cc1` [Example 111], the IC50 is less than 50 nM.

Consider `O=C(O)Cc1cnc(C(=O)c2ccc(NC(=O)c3cnc4ccccc4c3)cc2)c2ccccc12` [Example 112], for which the IC50 was less than 50 nM. `O=C(O)Cc1cnc(C(=O)c2ccc(NC(=O)c3cc4ccccc4cn3)cc2)c2ccccc12` [Example 113]: the IC50 is less than 50 nM.

For `O=C(O)Cc1cnc(C(=O)c2ccc(NC(=O)c3ccc(C4CCCCC4)cc3)cc2)c2ccccc12` [Example 114], the IC50 was less than 50 nM.

With `CC(C)Oc1ccc(C(=O)Nc2ccc(C(=O)c3ncc(CC(=O)O)c4ccccc34)cc2)cc1` [Example 115], the IC50 was less than 50 nM. For the compound `O=C(O)Cc1cnc(C(=O)c2ccc(NC(=O)c3ccc4occc4c3)cc2)c2ccccc12` [Example 116], the IC50 was less than 50 nM. On the same count and under the same terms, then `O=C(O)Cc1cnc(C(=O)c2ccc(NC(=O)c3ccc4nccnc4c3)cc2)c2ccccc12` [Example 117], with 500 to 1000 nM; and `O=C(O)Cc1cnc(C(=O)c2ccc(NC(=O)c3cc(F)c(F)c(F)c3F)cc2)c2ccccc12` [Example 118], with 500 to 1000 nM. Still for that read-out and setting: then `O=C(O)Cc1cnc(C(=O)c2ccc(NC(=O)c3cc4ccccc4s3)cc2)c2ccccc12` [Example 119], with less than 50 nM; and `CCCCCCc1ccc(C(=O)Nc2ccc(C(=O)c3ncc(CC(=O)O)c4ccccc34)cc2)cc1` [Example 120], with less than 50 nM; and `O=C(O)Cc1cnc(C(=O)c2ccc(NC(=O)c3cn4ccccc4n3)cc2)c2ccccc12` [Example 121], with 50 to 500 nM. Still for that read-out and setting: under `O=C(O)Cc1cnc(C(=O)c2ccc(NC(=O)c3cc4cc(F)ccc4[nH]3)cc2)c2ccccc12` [Example 122] stands less than 50 nM.

Regarding `Cn1c(C(=O)Nc2ccc(C(=O)c3ncc(CC(=O)O)c4ccccc34)cc2)cc2ccccc21` [Example 123], the IC50 is less than 50 nM. Same read-out and setting: under `O=C(O)Cc1cnc(C(=O)c2ccc(NC(=O)c3ccc4cnccc4n3)cc2)c2ccccc12` [Example 124] stands 500 to 1000 nM; under `Cc1c(F)c(F)c(C(=O)Nc2ccc(C(=O)c3ncc(CC(=O)O)c4ccccc34)cc2)c(F)c1F` [Example 125], 500 to 1000 nM. The same measure, in the same setting: then `O=C(O)Cc1cnc(C(=O)c2ccc(NC(=O)Cc3c[nH]c4ccccc34)cc2)c2ccccc12` [Example 126], with less than 50 nM; and `O=C(O)Cc1cnc(C(=O)c2ccc(C(=O)Nc3ccc(Cl)cc3)cc2)c2ccccc12` [Example 140], with less than 50 nM; and `O=C(O)Cc1cnc(C(=O)c2ccc(Oc3ccccc3)cc2)c2ccccc12` [Example 145], with no less than 1000 nM. With `O=C(O)Cc1cnc(C(=O)c2ccc(COCCc3ccc(Cl)cc3)cc2)c2ccccc12` [Example 146, {1-[(4-{[2-(4-chlorophenyl)ethoxy]methyl}phenyl)carbonyl]isoquinolin-4-yl}acetic acid], the IC50 lay in the range of 50 to 500 nM. Consider `O=C(O)Cc1cnc(C(=O)c2ccc(CNCc3ccc(Cl)cc3)cc2)c2ccccc12` [Example 147, {1-[(4-{[(4-chlorobenzyl)amino]methyl}phenyl)carbonyl]isoquinolin-4-yl}acetic acid hydrochloride], for which the IC50 is no less than 1000 nM. With `O=C(O)Cc1cnc(Cc2ccc(OCCc3ccc(Cl)cc3)cc2)c2ccccc12` [Example 149, (1-{4-[2-(4-chlorophenyl)ethoxy]benzyl}isoquinolin-4-yl)acetic acid], the IC50 is 500 to 1000 nM. For the compound `O=C(O)Cc1cnc(Cc2ccc(OCCCc3ccc(Cl)cc3)cc2)c2ccccc12` [Example 150], the IC50 lay in the range of 50 to 500 nM. On the same count and under the same terms, under `O=C(O)Cc1cnc(Cc2ccc(OCCOc3ccc(Cl)cc3)cc2)c2ccccc12` [Example 151] stands 50 to 500 nM; under `O=C(O)Cc1cnc(Cc2ccc(S(=O)(=O)NCCc3ccc(Cl)cc3)cc2)c2ccccc12` [Example 152, [1-(4-{[2-(4-chlorophenyl)ethyl]sulfamoyl}benzyl)isoquinolin-4-yl]acetic acid], 50 to 500 nM. `O=C(O)Cc1cnc(Cc2ccc(C(=O)NCc3ccc(Cl)cc3)cc2)c2ccccc12` [Example 154]: the IC50 was 50 to 500 nM. In the case of `O=C(O)Cc1cnc(Cc2ccc(C(=O)NCCc3cccc(Cl)c3)cc2)c2ccccc12` [Example 155], the IC50 is less than 50 nM.

On to `COc1ccc(CCNC(=O)c2ccc(Cc3ncc(CC(=O)O)c4ccccc34)cc2)cc1` [Example 156], for which the IC50 is 50 to 500 nM. Regarding `COc1ccc(CCNC(=O)c2ccc(Cc3ncc(CC(=O)O)c4ccccc34)cc2)cc1Cl` [Example 157], the IC50 is less than 50 nM.

As for `O=C(O)Cc1cnc(Cc2ccc(C(=O)Nc3ccc(Cl)c(Cl)c3)cc2)c2ccccc12` [Example 158], the IC50 was less than 50 nM.

As for `O=C(O)Cc1cnc(Cc2ccc(C(=O)Nc3ccc(Cl)cc3)cc2)c2ccccc12` [Example 159], the IC50 is less than 50 nM. Still for that read-out and setting: then `O=C(O)Cc1cnc(Cc2ccc(C(=O)NCCc3ccc(Cl)c(Cl)c3)cc2)c2ccccc12` [Example 160], with less than 50 nM.
